Measurements published in publication PMC9770967, “Native holdup (nHU) to measure binding affinities from cell extracts” (Science Advances, 2022).
Like-named read-outs stand apart in the source and are kept apart here. *1 amine or outer side, *2 acyl side, *3 side chain or, on linkers, in order; H or OH if unused. Where a SMILES comes first, the peptide text is derived from it. The star is where a group is joined. X1 = O=C(CCCC[C@@H]1SC[C@@H]2NC(=O)N[C@@H]21)NCCCOCCOCCOCCCN*; Suc = O=C(CCC(=O)[*:2])[*:1]

How the values were obtained:
[1] = target: SCRIB PDZ3; conditions: fragmentomic, isolated PDZ domain; cited from earlier work
From the text: (§1) Supplement sciadv.ade3828_table_s1.zip/sciadv.ade3828_table_s1.xlsx, sheet "nHU-WB_SP"

[2] = target: SCRIB PDZ2; conditions: fragmentomic, isolated PDZ domain; cited from earlier work
From the text: as §1

[3] = target: isolated PDZ domain of SNX27; conditions: 10-mer PBM peptide vs isolated PDZ domain, holdup; cited from earlier work
[4] = target: T1, endogenous full-length SNX27 (Homo sapiens, UniProt Q96L92); assay: Single-point nHU-WB, 12 PBM peptide baits, Jurkat extract; type: binding
T1 construct: Supernatant fractions were probed with specific antibodies against endogenous full-length PDZ domain–containing proteins SCRIB and SNX27; endogenous in cells; host or cells: Jurkat E6.1 total cell extract

[5] = target: endogenous full-length SCRIB (Homo sapiens, UniProt Q14160); assay: as above; type: binding
Sequence of endogenous full-length SCRIB (Q14160 whole entry, the tested form may be a part): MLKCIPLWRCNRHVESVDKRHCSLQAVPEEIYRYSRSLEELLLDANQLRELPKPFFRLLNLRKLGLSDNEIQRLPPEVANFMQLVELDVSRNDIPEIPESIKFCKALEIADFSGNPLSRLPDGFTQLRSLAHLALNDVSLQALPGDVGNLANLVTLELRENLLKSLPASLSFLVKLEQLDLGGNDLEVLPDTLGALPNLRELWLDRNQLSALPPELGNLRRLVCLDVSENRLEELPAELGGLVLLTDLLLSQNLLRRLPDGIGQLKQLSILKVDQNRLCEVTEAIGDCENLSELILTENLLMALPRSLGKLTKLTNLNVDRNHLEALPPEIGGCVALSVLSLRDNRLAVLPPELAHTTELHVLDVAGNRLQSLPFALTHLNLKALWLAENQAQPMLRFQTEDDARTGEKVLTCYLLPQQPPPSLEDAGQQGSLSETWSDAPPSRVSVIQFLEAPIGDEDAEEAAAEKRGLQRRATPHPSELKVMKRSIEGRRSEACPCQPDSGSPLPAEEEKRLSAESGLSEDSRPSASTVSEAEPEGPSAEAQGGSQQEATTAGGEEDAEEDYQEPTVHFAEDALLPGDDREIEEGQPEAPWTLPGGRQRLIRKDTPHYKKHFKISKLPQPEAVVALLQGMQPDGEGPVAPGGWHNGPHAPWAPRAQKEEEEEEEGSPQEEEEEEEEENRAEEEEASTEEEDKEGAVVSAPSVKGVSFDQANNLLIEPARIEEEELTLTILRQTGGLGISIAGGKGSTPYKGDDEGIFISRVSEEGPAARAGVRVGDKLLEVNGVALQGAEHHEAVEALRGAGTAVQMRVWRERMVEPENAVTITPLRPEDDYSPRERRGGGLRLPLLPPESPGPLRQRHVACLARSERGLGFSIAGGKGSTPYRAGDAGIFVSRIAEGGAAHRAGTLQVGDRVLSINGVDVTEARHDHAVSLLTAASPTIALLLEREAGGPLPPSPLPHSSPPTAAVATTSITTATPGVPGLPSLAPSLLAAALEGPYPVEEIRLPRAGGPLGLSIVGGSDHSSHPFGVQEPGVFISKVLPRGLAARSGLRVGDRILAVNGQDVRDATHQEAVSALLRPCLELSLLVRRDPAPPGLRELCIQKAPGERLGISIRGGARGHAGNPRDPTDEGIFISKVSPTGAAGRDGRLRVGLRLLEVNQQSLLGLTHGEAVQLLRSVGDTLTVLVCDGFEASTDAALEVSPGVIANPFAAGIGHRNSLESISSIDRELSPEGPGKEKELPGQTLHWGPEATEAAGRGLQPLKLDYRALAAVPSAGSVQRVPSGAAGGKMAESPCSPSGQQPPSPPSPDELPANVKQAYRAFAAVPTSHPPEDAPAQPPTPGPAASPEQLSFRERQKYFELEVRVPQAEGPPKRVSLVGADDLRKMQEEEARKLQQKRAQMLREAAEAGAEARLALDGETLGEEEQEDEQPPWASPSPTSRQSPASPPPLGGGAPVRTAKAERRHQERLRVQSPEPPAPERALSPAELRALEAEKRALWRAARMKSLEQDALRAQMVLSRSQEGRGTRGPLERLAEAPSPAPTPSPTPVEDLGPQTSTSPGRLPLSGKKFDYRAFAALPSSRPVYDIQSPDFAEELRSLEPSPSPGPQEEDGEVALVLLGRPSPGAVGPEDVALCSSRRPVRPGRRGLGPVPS

[6] = target: SCRIB PDZ1; conditions: fragmentomic, isolated PDZ domain; cited from earlier work
From the text: Supplement sciadv.ade3828_table_s1.zip/sciadv.ade3828_table_s1.xlsx, sheet "nHU-WB_SP" | column: Domain-motif fragmentomic affinities (ProfAff)

| Structure (SMILES) | pKd_PDZ3 [1] | pKd_PDZ2 [2] | pKd (fragmentomic affinity) [3] | Kd [4] | Kd [5] | pKd_PDZ1 [6] | Kd ([4]; apparent, Eq. 2, ~10 μM bait, Jurkat extract, mean of n = 3, read-out: av.pKapp (converted)) | Kd ([5]; apparent, Eq. 2, ~10 μM bait, Jurkat extract, mean of replicates with a value, read-out: av.pKapp (converted)) |
| --- | --- | --- | --- | --- | --- | --- | --- | --- |
| CC(C)C[C@H](NC(=O)[C@H](CC(N)=O)NC(=O)[C@@H](NC(=O)[C@H](CCC(=O)O)NC(=O)[C@H](CC(=O)O)NC(=O)[C@H](Cc1c[nH]c2ccccc12)NC(=O)[C@H](C)NC(=O)[C@@H]1CCCN1C(=O)[C@H](CC(=O)O)NC(=O)[C@H](CC(N)=O)NC(=O)CCC(=O)NCCCOCCOCCOCCCNC(=O)CCCC[C@@H]1SC[C@@H]2NC(=O)N[C@@H]21)[C@@H](C)O)C(=O)O [ARHGEF7] ({X1-Suc}-NDPAWDETNL-OH; C-terminus assumed) | 5.08 | 4.68 | 5.66 | 1.51 µM | 1.35 µM | 5.50 |  |  |
| CC(C)C[C@H](NC(=O)[C@H](CO)NC(=O)[C@@H](NC(=O)[C@H](CCC(=O)O)NC(=O)[C@H](CC(C)C)NC(=O)[C@H](CO)NC(=O)[C@H](Cc1c[nH]cn1)NC(=O)[C@H](CC(C)C)NC(=O)[C@@H]1CCCN1C(=O)[C@H](CO)NC(=O)CCC(=O)NCCCOCCOCCOCCCNC(=O)CCCC[C@@H]1SC[C@@H]2NC(=O)N[C@@H]21)[C@@H](C)O)C(=O)O [ATP2B1] ({X1-Suc}-SPLHSLETSL-OH; C-terminus assumed) | 5.54 | 4.27 | 5.48 |  |  | 5.36 |  |  |
| CC(C)[C@H](NC(=O)CN)C(=O)N[C@@H](CCC(=O)O)C(=O)NCC(=O)N[C@@H](CO)C(=O)N[C@@H](CC(=O)O)C(=O)N[C@H](C(=O)N[C@H](C(=O)N[C@@H](CCC(=O)O)C(=O)N[C@@H](C)C(=O)O)[C@@H](C)O)[C@@H](C)O [MAP4] (H-GVEGSDTTEA-OH) |  |  |  |  |  |  | 1.51 µM | 1.17 µM |
| CC(C)C[C@H](NC(=O)[C@H](CO)NC(=O)[C@@H](NC(=O)[C@H](CCC(=O)O)NC(=O)[C@H](CCC(=O)O)NC(=O)[C@H](CS)NC(=O)[C@@H](NC(=O)[C@H](CCCNC(=N)N)NC(=O)[C@@H](NC(=O)[C@@H]1CCCN1C(=O)CCC(=O)NCCCOCCOCCOCCCNC(=O)CCCC[C@@H]1SC[C@@H]2NC(=O)N[C@@H]21)C(C)C)C(C)C)[C@@H](C)O)C(=O)O [OTULIN] ({X1-Suc}-PVRVCEETSL-OH; C-terminus assumed) | 5.64 | 4.70 | 5.58 |  |  | 5.44 |  |  |
| CSCC[C@H](NC(=O)[C@@H](NC(=O)[C@H](CO)NC(=O)[C@H](CCC(=O)O)NC(=O)[C@H](CCCCN)NC(=O)[C@H](CCC(=O)O)NC(=O)[C@H](CO)NC(=O)[C@H](C)NC(=O)[C@@H](NC(=O)[C@@H](NC(=O)CCC(=O)NCCCOCCOCCOCCCNC(=O)CCCC[C@@H]1SC[C@@H]2NC(=O)N[C@@H]21)[C@@H](C)O)C(C)C)C(C)C)C(=O)O [SLC1A5] ({X1-Suc}-TVASEKESVM-OH; C-terminus assumed) | 3.97 |  | 5.29 | 8.91 µM | 112 µM | 5.20 |  |  |
| CC(C)C[C@H](NC(=O)[C@@H]1CCCN1C(=O)[C@H](Cc1c[nH]cn1)NC(=O)[C@H](Cc1ccccc1)NC(=O)CCC(=O)NCCCOCCOCCOCCCNC(=O)CCCC[C@@H]1SC[C@@H]2NC(=O)N[C@@H]21)C(=O)NCC(=O)N[C@@H](C)C(=O)N[C@@H](CC(=O)O)C(=O)N[C@@H](CO)C(=O)N[C@@H](CCC(N)=O)C(=O)N[C@H](C(=O)O)C(C)C [SLC2A1] ({X1-Suc}-FHPLGADSQV-OH; C-terminus assumed) | 3.58 |  | 4.05 | 25.1 µM | 69.2 µM | 4.02 |  |  |
| CC(C)[C@H](NC(=O)[C@@H]1CCCN1C(=O)[C@H](CO)NC(=O)[C@H](CCC(=O)O)NC(=O)[C@H](CCC(=O)O)NC(=O)[C@H](CCC(=O)O)NC(=O)[C@H](CCCCN)NC(=O)[C@@H]1CCCN1C(=O)CNC(=O)CNC(=O)CCC(=O)NCCCOCCOCCOCCCNC(=O)CCCC[C@@H]1SC[C@@H]2NC(=O)N[C@@H]21)C(=O)O [SLC16A1] ({X1-Suc}-GGPKEEESPV-OH; C-terminus assumed) |  |  | 5.27 | 6.17 µM | 69.2 µM | 5.18 |  |  |
